In patent publication US20240408064A1, “RAS INHIBITORS, COMPOSITIONS AND METHODS OF USE THEREOF” (GENETOLEAD INC., priority 2021, published 2024):
Several values for one entry are separate records, joined by “and”; a condition that tells them apart may be missing. Equal entries are not always repeated.

How the values were obtained:
HRas^G12V [1] = biological target: T1, HRas^G12V (Homo sapiens (Human), UniProt P01112, G12V); assay: 19F T2-CPMG NMR score; format: binding
Method: (§1) All NMR experiments were collected using 3 mm NMR tubes on a 600 MHz Bruker Avance III spectrometer equipped with a QCI helium cryoprobe and a SampleJet sample changer. The buffer used for NMR experiments was 25 mM sodium phosphate pH 7.4, 150 mM NaCl, 5 mM MgCl2, 1 mM TCEP-d16, 10% D2O. Data were processed using Bruker TopSpin.
(§2) Since the fragment library was curated using phosphate buffer, 25 mM sodium phosphate pH 7.4, 150 mM NaCl, 5 mM MgCl2, 1 mM TCEP-d16, 10% D2O Fresh TCEP was used for experiments. Screening was performed using ^1H-decoupled 1D ^19F experiment Bruker experiment (zgfhigqn.2) with 64 scans and a relaxation delay of 5 seconds. 50 μM HRas^G12V and 240 μM of each fragment in pools (mixtures) were used.
(§3) Hit confirmation was performed using the same ^19F experiment as the screen. Ligand-observed 1D ^1H, protein-observed 1D ^1H, ^1H T2-CPMG as well as Saturation Transfer Difference (STD) experiments were also run on the same samples. Ligand-observed 1D ^1H was run using the standard Bruker sequence with excitation sculpting (zgesgp) with a relaxation delay of 10 seconds and 16 scans per spectrum. Protein-observed 1D ^1H was performed using the same sequence with a relaxation delay of 1 second and 256 scans in order to increase the signal-to-noise of the protein resonances, while keeping the experimental time relatively short. The ^1H T2-CPMG experiment employed a modified version of the Bruker 1D ^1H zgesgp experiment with the addition of a CPMG pulse train after the first 90° excitation pulse. Total duration for each spin echo was fixed at 1 ms (τ=500 μs), while the number of echoes in the pulse train was varied according to the total time (T). The number of scans for each spectrum was 4 and eight delay times were run on each sample, ranging from 1 ms to 800 ms.
Because of its power to probe the intrinsically weak interactions (Kd) between targets and low-molecular weight fragments, NMR fragment-based lead discovery (FBLD) is a very useful biophysical method in early stage drug discovery, especially for challenging target proteins; including those with shallow binding pockets. Since FBLD screens are performed using low-molecular weight compounds (fragments) with lower structural complexity, the same chemical space can be covered using a smaller number of drug-like fragments versus use of large libraries of higher-molecular weight lead-like compounds as in high throughput screening (HTS) campaigns. Therefore, FBLD has a much higher hit rate than HTS using only several hundred to several thousand compounds in comparison with approximately 1 million compounds for HTS. Also, the small size of the compounds screened in FBLD means a better chance to fully match the interactions with small or transient pockets within the target protein, where these less tractable pockets cannot be accessed with standard classical HTS methods. […] We expect this methodology to be more advantageous than classical HTS methods for expediting the time from hit to lead (H2L) and allows for rapid access to high quality leads with lower attrition rates in subsequent lead optimization (LO) campaigns toward pre-clinical candidate selection. FBLD screening by NMR involves a “consensus binding” approach where several distinct NMR experiments (DLB, STD, CPMG) are applied along with a free-state aggregation detection method (T2-CPMG) to rank the compounds for their affinity to the receptor (HRAS in this case) whilst simultaneously monitoring the solution behavior and critical quality attributes of each compound. The latter helps to eliminate artifact binders which are highly problematic. We performed a fluorine screen involving 461 compounds that were derived from a highly curated fragment library. Moreover, two-dimensional ^15N HSQC NMR was also used to validate ligand-binding sites on the target protein. […]

HRas^G12V [2] = biological target: T1, HRas^G12V; assay: 19F DLB (ligand-observed 19F NMR) score; format: binding; set-up: scale not given here
Method: as §1, §2
as §3, with “ms. […]” for “ms.”

T1 sequence (P01112 1-166 G12V): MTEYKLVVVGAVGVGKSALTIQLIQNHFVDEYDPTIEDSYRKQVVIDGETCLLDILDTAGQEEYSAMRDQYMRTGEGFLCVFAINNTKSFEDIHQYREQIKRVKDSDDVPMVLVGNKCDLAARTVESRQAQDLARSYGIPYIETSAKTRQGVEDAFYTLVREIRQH

Row | Compound | 19F T2-CPMG Score (HRas^G12V [1]) | 19F DLB Score (HRas^G12V [2])
1 | O=C1C[C@H](c2c[nH]c3cc(F)ccc23)C(=O)N1 (single isomer, unassigned) [Compound 11039] | 39.34 | 3.59
2 | O=C1C[C@@H](c2c[nH]c3cc(F)ccc23)C(=O)N1 (single isomer, unassigned) [Compound 11040] |  | 3.49
3 | O=C(NCCc1c[nH]c2cc(F)ccc12)[C@H]1CCCO1 [Compound 10013] | 12.62 | 2.09
4 | O=C(Cc1c[nH]c2cc(F)ccc12)N1CCOCC1 [Compound 10016] |  | 4.63 and 2.64
5 | CN1CCN(CCNC(=O)Cc2c[nH]c3cc(F)ccc23)CC1 [Compound 10020] | 14.34 | 1.62
6 | CN1CCN(C(=O)Cc2c[nH]c3cc(F)ccc23)CC1 [Compound 10065] | 22.6 | 2.88
7 | CC(C)N1CCN(C(=O)Cc2c[nH]c3cc(F)ccc23)CC1 [Compound 10068] | 10.72 | 2.43
8 | O=C(Cc1c[nH]c2cc(F)ccc12)N1CC2(COC2)C1 [Compound 10069] | 21.31 | 2.54
9 | COCC1CN(C(=O)Cc2c[nH]c3cc(F)ccc23)C1 [Compound 10075] | 7.09 | 1.77
10 | COC1CN(C(=O)Cc2c[nH]c3cc(F)ccc23)C1 [Compound 10081] | 15.91 | 2.15
11 | O=C(CN1CCC1)c1c[nH]c2cc(F)ccc12 [Compound 10085, 2-(azetidin-1-yl)-1-(6-fluoro-1H-indol-3-yl) ethan-1-one] | 21.45 | 2.43
12 | COC(=O)C1CN(C(=O)Cc2c[nH]c3cc(F)ccc23)C1 [Compound 10087, methyl 1-(2-(6-fluoro-1H-indol-3-yl)acetyl) azetidine-3-carboxylate] | 13.65 | 2.16
13 | COC(=O)C1CCN1C(=O)Cc1c[nH]c2cc(F)ccc12 (stereo not shown) [Compound 10088, Methyl 1-(2-(6-fluoro-1H-indol-3-yl)acetyl)azetidine-2-carboxylate] | 11.14 | 2.24
14 | COCC1(O)CN(C(=O)Cc2c[nH]c3cc(F)ccc23)C1 [Compound 10089, 2-(6-fluoro-1H-indol-3-yl)-1-(3-hydroxy-3-(methoxymethyl)azetidin-1-yl)ethan-1-one] | 9.84 | 1.89
15 | CC(=O)N[C@@H]1CCN(C(=O)Cc2c[nH]c3cc(F)ccc23)C1 [Compound 10091] | 7.83 | 1.93
16 | CC1CN(C)CCC1NC(=O)Cc1c[nH]c2cc(F)ccc12 (stereo not shown) [Compound 10099, N-(1,3-dimethylpiperidin-4-yl)-2-(6-fluoro-1H-indol-3-yl)acetamide] | 11.85 | 1.4
17 | COCCOC1CN(C(=O)Cc2c[nH]c3cc(F)ccc23)C1 [Compound 10103, 2-(6-fluoro-1H-indol-3-yl)-1-(3-(2-methoxyethoxy)azetidin-1-yl) ethan-1-one] | 7.82 | 1.62
18 | O=C1CCCN(C(=O)Cc2c[nH]c3cc(F)ccc23)C1 [Compound 10109] | 15.4 | 3.45
19 | CC(C)COC1CCN(C(=O)Cc2c[nH]c3cc(F)ccc23)CC1 [Compound 10111, 2-(6-fluoro-1H-indol-3-yl)-1-(4-isobutoxypiperidin-1-yl) ethan-1-one] | 12.96 | 2.23
20 | O=C(C1CC1)C1CN(C(=O)Cc2c[nH]c3cc(F)ccc23)C1 [Compound 10115, 1-(3-(cyclopropanecarbonyl)azetidin-1-yl)-2-(6-fluoro-1H-indol-3-yl)ethan-1-one] | 12.42 | 1.89
21 | CC(C)C(=O)C1CN(C(=O)Cc2c[nH]c3cc(F)ccc23)C1 [Compound 10116] | 13.95 | 1.88
22 | CC1CN(C(=O)C(C#N)c2c[nH]c3cc(F)ccc23)C1 (stereo not shown) [Compound 11033] |  | 6.06
23 | O=C(C1CCNCC1)N1CCC(c2c[nH]c3cc(F)ccc23)C1 (stereo not shown) [Compound 11038] |  | 2.37
24 | O=C(C1CCNC1)N1CCC(c2c[nH]c3cc(F)ccc23)CC1 (stereo not shown) [Compound 11046] |  | 3.58
25 | O=C(C1CCCNC1)N1CCC(c2c[nH]c3cc(F)ccc23)CC1 (stereo not shown) [Compound 11048] |  | 3.29
26 | CN(C)Cc1cc2ccc(F)cc2[nH]1 [Compound 11049] |  | Non conclusive

Results, then the molecule that gave them:

Row | 19F T2-CPMG Score (HRas^G12V [1]) | 19F DLB Score (HRas^G12V [2]) | Compound
27 | 18.47 | 3.05 | COc1cccc(NC(=O)Cc2c[nH]c3cc(F)ccc23)c1 [Compound 10030]
28 | 20.33 | 0.96 | O=C(NCCc1c[nH]c2cc(F)ccc12)c1ccc(F)cc1 [Compound 10039]
29 | 37.91 | 2.72 | O=C(Cc1c[nH]c2cc(F)ccc12)Nc1ccc2[nH]ccc2c1 [Compound 10042]
30 | 25.51 | 4.75 | Fc1ccc2c(CNc3ccccc3)c[nH]c2c1 [Compound 10052, N-((6-fluoro-1H-indol-3-yl)methyl) aniline]
31 | 21.6 | 3.07 | O=C(Cc1c[nH]c2cc(F)ccc12)Nc1cccnc1 [Compound 10058]
32 | 18.99 | 3.22 | O=C(Cc1c[nH]c2cc(F)ccc12)Nc1ccc2c(c1)OCO2 [Compound 10059]
33 | 11.04 | 2.07 | O=C(Cc1c[nH]c2cc(F)ccc12)Nc1ncccn1 [Compound 10078, 2-(6-fluoro-1H-indol-3-yl)-N-(pyrimidin-2-yl) acetamide]
34 | 9.66 | 1.73 | CC(c1ccncc1)N(C)C(=O)Cc1c[nH]c2cc(F)ccc12 (stereo not shown) [Compound 10100, 2-(6-fluoro-1H-indol-3-yl)-N-methyl-N-(1-(pyridin-4-yl)ethyl)acetamide]
35 |  | 5.34 | CC(=O)Nc1cccc(NC(=O)C(C#N)c2c[nH]c3cc(F)ccc23)c1 (stereo not shown) [Compound 11035]
36 |  | Non conclusive | O=C(O)CCc1c[nH]c2cc(F)ccc12 [Compound 11050]
37 |  | Non conclusive | O=C(O)CC(c1ccc(F)cc1F)c1c[nH]c2cc(F)ccc12 (stereo not shown) [Compound 11056]
38 |  | Non conclusive | COc1ccc(C(CC(=O)O)c2c[nH]c3cc(F)ccc23)cc1 (stereo not shown) [Compound 11057]
39 |  | Non conclusive | O=C(O)CC(c1cccc(F)c1)c1c[nH]c2cc(F)ccc12 (stereo not shown) [Compound 11059]
40 |  | Non conclusive | O=C(O)C(NCc1ccccc1)c1c[nH]c2cc(F)ccc12 (stereo not shown) [Compound 11060]
41 |  | Non conclusive | O=C(O)C(NCc1cncc(Br)c1)c1c[nH]c2cc(F)ccc12 (stereo not shown) [Compound 11061]
42 |  | Non conclusive | O=C(O)C(c1c[nH]c2cc(F)ccc12)N1CCC(O)CC1 (stereo not shown) [Compound 11062]
43 |  | Non conclusive | O=C(O)C(NCc1ccc(O)cc1)c1c[nH]c2cc(F)ccc12 (stereo not shown) [Compound 11063]
